# According to ChEMBL document CHEMBL1201862, “PubChem BioAssay data set” (2004):
#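 Following 48 hours of exposure in 96-well plates, responses at five concentrations were used to interpolate endpoints linearly. GI50 is the concentration that inhibits growth by half.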 Activity calls are given as the source filed them. No stated cut-off is given here; in the data, active = GI50 up to about 1.1 µM and inactive = higher.
# Columns and labels:
# Experiment in all cases: growth of human tumour cells (NCI), 48 h
# 786-0 = test system: 786-0
# A498 = test system: A498
# A549 = test system: A549
# ACHN = test system: ACHN
# BT-549 = test system: BT-549
# CAKI-1 = test system: CAKI-1
# CCRF-CEM = test system: CCRF-CEM
# COLO 205 = test system: COLO 205
# DU-145 = test system: DU-145
# EKVX = test system: EKVX
# HCC 2998 = test system: HCC 2998
# HCT-116 = test system: HCT-116
# HCT-15 = test system: HCT-15
# HL-60 = test system: HL-60
# HOP-62 = test system: HOP-62
# HT-29 = test system: HT-29
# Hs-578T = test system: Hs-578T
# IGROV-1 = test system: IGROV-1
# K562 = test system: K562
# KM12 = test system: KM12
# LOX IMVI = test system: LOX IMVI
# M14 = test system: M14
# MCF7 = test system: MCF7
# MDA-MB-231 = test system: MDA-MB-231
# MDA-MB-435 = test system: MDA-MB-435
# MOLT-4 = test system: MOLT-4
# Malme-3M = test system: Malme-3M
# NCI-H226 = test system: NCI-H226
# NCI-H23 = test system: NCI-H23
# NCI-H460 = test system: NCI-H460
# NCI-H522 = test system: NCI-H522
# NCI/ADR-RES = test system: NCI/ADR-RES
# OVCAR-3 = test system: OVCAR-3
# OVCAR-4 = test system: OVCAR-4
# OVCAR-5 = test system: OVCAR-5
# OVCAR-8 = test system: OVCAR-8
# PC-3 = test system: PC-3
# RPMI-8226 = test system: RPMI-8226
# RXF 393 = test system: RXF 393
# SF-268 = test system: SF-268
# SF-295 = test system: SF-295
# SF-539 = test system: SF-539
# SK-MEL-28 = test system: SK-MEL-28
# SK-MEL-2 = test system: SK-MEL-2
# SK-MEL-5 = test system: SK-MEL-5
# SK-OV-3 = test system: SK-OV-3
# SN12C = test system: SN12C
# SNB-19 = test system: SNB-19
# SNB-75 = test system: SNB-75
# SR = test system: SR
# SW-620 = test system: SW-620
# T47D = test system: T47D
# TK-10 = test system: TK-10
# U-251 = test system: U-251
# UACC-257 = test system: UACC-257
# UACC-62 = test system: UACC-62
# UO-31 = test system: UO-31
smiles,measurement,setting,value
COC(=O)C1CC2(C)C=CC1N(C(=O)OCc1ccccc1)C2 (configuration not stated),GI50,786-0,> 100 µM (inactive)
same,GI50,A498,> 100 µM (inactive)
same,GI50,A549,88.5 µM (inactive)
same,GI50,ACHN,> 100 µM (inactive)
same,GI50,BT-549,54.1 µM (inactive)
same,GI50,CAKI-1,> 100 µM (inactive)
same,GI50,CCRF-CEM,69 µM (inactive)
same,GI50,COLO 205,> 100 µM (inactive)
same,GI50,DU-145,> 100 µM (inactive)
same,GI50,EKVX,38.2 µM (inactive)
same,GI50,HCC 2998,> 100 µM (inactive)
same,GI50,HCT-116,40.8 µM (inactive)
same,GI50,HCT-15,94 µM
same,GI50,HL-60,24.2 µM (inactive)
same,GI50,HOP-62,> 100 µM (inactive)
same,GI50,HT-29,46.2 µM (inactive)
same,GI50,Hs-578T,86.5 µM (inactive)
same,GI50,IGROV-1,> 100 µM (inactive)
same,GI50,K562,49.7 µM (inactive)
same,GI50,KM12,52.1 µM (inactive)
same,GI50,LOX IMVI,> 100 µM (inactive)
same,GI50,M14,63.8 µM (inactive)
same,GI50,MCF7,52.7 µM (inactive)
same,GI50,MDA-MB-231,> 100 µM (inactive)
same,GI50,MDA-MB-435,79.6 µM (inactive)
same,GI50,MOLT-4,31.6 µM (inactive)
same,GI50,Malme-3M,> 100 µM (inactive)
same,GI50,NCI-H226,> 100 µM (inactive)
same,GI50,NCI-H23,59.3 µM (inactive)
same,GI50,NCI-H460,> 100 µM (inactive)
same,GI50,NCI-H522,30.6 µM (inactive)
same,GI50,NCI/ADR-RES,41.3 µM (inactive)
same,GI50,OVCAR-3,55.8 µM (inactive)
same,GI50,OVCAR-4,40 µM (inactive)
same,GI50,OVCAR-5,> 100 µM (inactive)
same,GI50,OVCAR-8,> 100 µM (inactive)
same,GI50,PC-3,87.7 µM (inactive)
same,GI50,RPMI-8226,48 µM (inactive)
same,GI50,RXF 393,41.9 µM (inactive)
same,GI50,SF-268,> 100 µM (inactive)
same,GI50,SF-295,42.4 µM (inactive)
same,GI50,SF-539,> 100 µM (inactive)
same,GI50,SK-MEL-28,> 100 µM (inactive)
same,GI50,SK-MEL-2,> 100 µM (inactive)
same,GI50,SK-MEL-5,34.8 µM (inactive)
same,GI50,SK-OV-3,27.7 µM (inactive)
same,GI50,SN12C,> 100 µM (inactive)
same,GI50,SNB-19,> 100 µM (inactive)
same,GI50,SNB-75,28.5 µM (inactive)
same,GI50,SR,37.6 µM (inactive)
same,GI50,SW-620,> 100 µM (inactive)
same,GI50,T47D,40 µM (inactive)
same,GI50,TK-10,> 100 µM (inactive)
same,GI50,U-251,58.1 µM (inactive)
same,GI50,UACC-257,65.3 µM (inactive)
same,GI50,UACC-62,51.5 µM (inactive)
same,GI50,UO-31,69.5 µM (inactive)
